# Reference: the supplement of paper PMC6723410
# Tested on: GUMC-403
# Assay: AC50 for reduction of cell viability; higher = less potent
# Conditions: library / dose series: MIPE library, 11-point 1:3 dilution; 48 h
row,SMILES,AC50 for reduction of cell viability
1,COc1ccc(-c2nc(N3CCOCC3)c3sc(CN(C)c4ncc(C(=O)NO)cn4)cc3n2)cn1,1.05 µM
2,CCCCN1CCC(CNC(=O)c2c3n(c4ccccc24)CCCO3)CC1,16.6 µM
3,CC[P](CC)(CC)=[Au][S][C@@H]1O[C@H](COC(C)=O)[C@@H](OC(C)=O)[C@H](OC(C)=O)[C@H]1OC(C)=O,9.35 µM

# Same assay, conditions: library / dose series: NPC library, 8-point 1:5 dilution; 48 h
row,SMILES,AC50 for reduction of cell viability
1,C[C@@H]1O[C@@H](O[C@H]2C[C@@H](O)[C@]3(CO)[C@H]4[C@H](O)C[C@]5(C)[C@@H](C6=CC(=O)OC6)CC[C@]5(O)[C@@H]4CC[C@]3(O)C2)[C@H](O)[C@H](O)[C@H]1O,0.075 µM
2,CC(O)C(=O)O.CCOc1ccc2nc3cc(N)ccc3c(N)c2c1.O,18.8 µM
3,O=C1NCCN1CCN1CCC(c2cn(-c3ccc(F)cc3)c3ccc(Cl)cc23)CC1,2.66 µM
4,Cc1cc2nc3ccc(N(C)C)cc3[s+]c2cc1N.[Cl-],18.8 µM
5,[Cl-].C/[N+](C)=C1\C=C\C(C=C1)=C(/c2ccc(cc2)N(C)C)c3ccc(cc3)N(C)C,13.3 µM
6,CN(C)C(=S)SSC(=S)N(C)C,18.8 µM
7,CCCCCCCCCCCCCC[N+](C)(C)C.[Br-],26.6 µM
8,C/C(C)=C\CNc3ncnc1c3ncn1[C@@H]2O[C@H](CO)[C@@H](O)[C@H]2O,9.44 µM
9,CO[C@@]12[C@H](COC(N)=O)C3=C(C(=O)C(C)=C(N)C3=O)N1C[C@@H]1N[C@@H]12,16.8 µM
10,CCCCCCCCCCCC[N+](C)(C)CCOc1ccccc1.[Br-],26.6 µM
11,CCN1C(=CC=Cc2ccc3ccccc3[n+]2CC)C=Cc2ccccc21.[I-],2.66 µM
12,Cc1nc(Nc2ncc(C(=O)Nc3c(C)cccc3Cl)s2)cc(N2CCN(CCO)CC2)n1,0.0841 µM
13,CN(C)c1ccc2nc3ccc(N(C)C)cc3[s+]c2c1.[Cl-],26.6 µM
14,C[n+]1cc2c3c(ccc2c2ccc4cc5c(cc4c21)OCO5)OCO3,1.3 µM
15,O=C(CCCN1CC=C(n2c(=O)[nH]c3ccccc32)CC1)c1ccc(F)cc1,18.8 µM
16,Oc1c(Cl)cc(Cl)c(Cl)c1Cc1c(O)c(Cl)cc(Cl)c1Cl,16.8 µM
17,COc1cc2ncnc(Nc3ccc(F)c(Cl)c3)c2cc1OCCCN1CCOCC1,1.19 µM
18,Cc1cc(N)c2cc(NC(=O)Nc3ccc4nc(C)cc(N)c4c3)ccc2n1.Cl.Cl,3.76 µM
19,CCN(CC)CCNc1ccc(CO)c2sc3ccccc3c(=O)c12,26.6 µM
20,COc1cccc2c1C(=O)c1c(O)c3c(c(O)c1C2=O)C[C@@](O)(C(=O)CO)CC3OC1CC(N2CCOC(OC)C2)C(O)C(C)O1 (stereo not given in full),0.0211 µM
21,C[C@H]1O[C@@H](O[C@H]2CC[C@@]3(C)[C@H](CC[C@@H]4[C@@H]3C[C@@H](O)[C@]3(C)[C@@H](C5=CC(=O)OC5)CC[C@]43O)C2)C[C@H](O)[C@@H]1O[C@H]1C[C@H](O)[C@H](O[C@H]2C[C@H](O)[C@H](O[C@@H]3O[C@H](CO)[C@@H](O)[C@H](O)[C@H]3O)[C@@H](C)O2)[C@@H](C)O1,0.106 µM

row,SMILES,AC50 for reduction of cell viability
1,CN(C)C(=S)SC(=S)N(C)C,5.31 µM
2,O=c1[nH]c2ccccc2n1C1CCN(CCCC(c2ccc(F)cc2)c2ccc(F)cc2)CC1,2.66 µM
3,COc1cccc2c1C(=O)c1c(O)c3c(c(O)c1C2=O)C[C@@](O)(C(C)=O)C[C@@H]3O[C@H]1C[C@H](N)[C@H](O)[C@H](C)O1,2.66 µM
4,CCCCCCCCCCCCCCCC[N+](C)(C)C.[Br-],21.1 µM
5,N=C(N/N=C\c1ccc(Cl)cc1)N/N=C/c1ccc(Cl)cc1,8.41 µM
6,CCCCCNC(=N)N/N=C/c1c[nH]c2ccc(OC)cc12,18.8 µM
7,CC(C)C[C@H](NC(=O)[C@H](CCc1ccccc1)NC(=O)CN1CCOCC1)C(=O)N[C@@H](Cc1ccccc1)C(=O)N[C@@H](CC(C)C)C(=O)[C@@]1(C)CO1,1.19 µM
8,Cc1cc(OCCOCC[N+](C)(C)Cc2ccccc2)ccc1C(C)(C)CC(C)(C)C.[Cl-],23.7 µM
9,CC(=O)Oc1ccc(C2(c3ccc(OC(C)=O)cc3)C(=O)Nc3ccccc32)cc1,0.841 µM
10,CC[C@H](O)C(C[C@H](C)N(C)C)(c1ccccc1)c1ccccc1.Cl,44.1 µM
11,C=C[C@@]1(C)CC(=O)[C@]2(O)[C@@]3(C)[C@@H](O)CCC(C)(C)[C@@H]3[C@H](O)[C@H](OC(C)=O)[C@@]2(C)O1,1.68 µM
12,CCOC(=O)[C@@](C)(N)Cc1ccc(O)c(O)c1.Cl,6.68 µM
13,CCCCC(CC)CNC(=N)NC(=N)NCCCCCCNC(=N)NC(=N)NCC(CC)CCCC.Cl.Cl (stereo not given),2.66 µM
14,C#Cc1cccc(Nc2ncnc3cc(OCCOC)c(OCCOC)cc23)c1,0.106 µM
15,C[C@@H]1O[C@@H](O[C@@H]2C=C3CC[C@@H]4[C@H](CC[C@]5(C)[C@@H](c6ccc(=O)oc6)CC[C@]45O)[C@@]3(C)CC2)[C@H](O)[C@H](O)[C@H]1O,0.0119 µM
16,CC[n+]1c(-c2ccccc2)c2cc(N)ccc2c2ccc(N)cc21.[Br-],9.44 µM
17,C[C@H]1O[C@@H](O[C@H]2[C@@H](O)C[C@H](O[C@H]3[C@@H](O)C[C@H](O[C@H]4CC[C@@]5(C)[C@H](CC[C@@H]6[C@@H]5CC[C@]5(C)[C@@H](C7=CC(=O)OC7)CC[C@]65O)C4)O[C@@H]3C)O[C@@H]2C)C[C@H](O)[C@@H]1O,0.237 µM
18,COc1cccc2c1C(=O)c1c(O)c3c(c(O)c1C2=O)C[C@@](O)(C(=O)CO)C[C@@H]3O[C@H]1C[C@H](N)[C@H](O)[C@H](C)O1.Cl,11.9 µM
19,CCN(CC)CCCC(C)Nc1c2ccc(Cl)cc2nc2ccc(OC)cc12.Cl.Cl.O.O (stereo not given),21.1 µM
20,C[C@@]12C(=O)OC(=O)[C@]1(C)C1CCC2O1,3.35 µM

# Tested on: GUMC-403
# Assay: viability at highest tested concentration (max response) relative to DMSO (% of DMSO control); higher = less cytotoxic
# Conditions: library / dose series: MIPE library, 11-point 1:3 dilution; top concentration 46.1 µM; 48 h
# Outline: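 Conditionally reprogrammed GUMC-403 papilloma cells from a patient were plated at 700/well in 5 μL F + Y medium in 1536-well plates and left overnight at 37 °C. A pin tool then added 23 nL of library compounds as an 11-point 1:3 series, for 48 h. CellTiter-Glo luminescence was read on a ViewLux and scaled with vehicle wells set to 100% and empty wells to 0%. Each value gives viability at the highest tested concentration relative to vehicle control.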
row,SMILES,viability
1,COc1ccc(-c2nc(N3CCOCC3)c3sc(CN(C)c4ncc(C(=O)NO)cn4)cc3n2)cn1,44.7
2,CCCCN1CCC(CNC(=O)c2c3n(c4ccccc24)CCCO3)CC1,23.8
3,O=C(NNC(=O)c1ccc(CN[S+](=O)([O-])c2ccc(F)c(Cl)c2)cc1)c1ccccc1,129
4,CNCc1ccc(-c2[nH]c3cc(F)cc4c3c2CCNC4=O)cc1,93.2
5,C/C=C(/C(=C/C)c1ccc(O)cc1)c1ccc(O)cc1,89.2
6,CCc1cc(C(N)=S)ccn1,120
7,Nc1nc(N)c2nc(CNc3ccc(C(=O)NC(CCC(=O)O)C(=O)O)cc3)cnc2n1 (stereo not given),76.6
8,C[N]1C2=C(SC(=C2)[S+](C)[O-])C\3=C1C(=O)N(CC4=CC(=CC=C4)N)\N=C3 (stereo not given),106
9,CC/1=C(/C(CC(=O)N1)C2=CC=C(C=C2)C(F)(F)F)C(=O)NC3=C(F)C=C4[NH]N=CC4=C3 (stereo not given),108
10,COCCCN1CCC(NC(=O)c2cc(Cl)c(N)c3c2OCC3)CC1,76.9
11,O=C(Nc1cccc2c(=O)cc(-c3nnn[nH]3)oc12)c1ccc(OCCCCc2ccccc2)cc1,87
12,CN1\N=N/C2=C(N=C[N]2C1=O)C(N)=O,121
13,CCOC(=O)\C1=C\[C@]2(CC)CCCN3CCC4=C([C@H]23)[N]1C5=C4C=CC=C5,83.9
14,CCN1\C=C(\C(O)=O)C(=O)C2=C1N=C(N3CCNCC3)C(=C2)F,95.7
15,CN1CCC(CC1)COC2=CN=C(N=C2)C3=CC(=CC=C3)CN4/N=C(\C=C/C4=O)C5=CC(=CC=C5)C#N,96.2

# Same assay, conditions: library / dose series: MIPE library, 11-point 1:3 dilution; top concentration 92.2 µM; 48 h
row,SMILES,viability
1,O=c1[nH]c(=O)n(C2CCCO2)cc1F (stereo not given),104
